Values after ≈ are worked out from the molar mass of the structure shown.

The target of assay [1] is T1, Multidrug efflux pump subunit AcrB (Escherichia coli (strain K12)) (UniProt P31224).
T1 sequence (whole entry): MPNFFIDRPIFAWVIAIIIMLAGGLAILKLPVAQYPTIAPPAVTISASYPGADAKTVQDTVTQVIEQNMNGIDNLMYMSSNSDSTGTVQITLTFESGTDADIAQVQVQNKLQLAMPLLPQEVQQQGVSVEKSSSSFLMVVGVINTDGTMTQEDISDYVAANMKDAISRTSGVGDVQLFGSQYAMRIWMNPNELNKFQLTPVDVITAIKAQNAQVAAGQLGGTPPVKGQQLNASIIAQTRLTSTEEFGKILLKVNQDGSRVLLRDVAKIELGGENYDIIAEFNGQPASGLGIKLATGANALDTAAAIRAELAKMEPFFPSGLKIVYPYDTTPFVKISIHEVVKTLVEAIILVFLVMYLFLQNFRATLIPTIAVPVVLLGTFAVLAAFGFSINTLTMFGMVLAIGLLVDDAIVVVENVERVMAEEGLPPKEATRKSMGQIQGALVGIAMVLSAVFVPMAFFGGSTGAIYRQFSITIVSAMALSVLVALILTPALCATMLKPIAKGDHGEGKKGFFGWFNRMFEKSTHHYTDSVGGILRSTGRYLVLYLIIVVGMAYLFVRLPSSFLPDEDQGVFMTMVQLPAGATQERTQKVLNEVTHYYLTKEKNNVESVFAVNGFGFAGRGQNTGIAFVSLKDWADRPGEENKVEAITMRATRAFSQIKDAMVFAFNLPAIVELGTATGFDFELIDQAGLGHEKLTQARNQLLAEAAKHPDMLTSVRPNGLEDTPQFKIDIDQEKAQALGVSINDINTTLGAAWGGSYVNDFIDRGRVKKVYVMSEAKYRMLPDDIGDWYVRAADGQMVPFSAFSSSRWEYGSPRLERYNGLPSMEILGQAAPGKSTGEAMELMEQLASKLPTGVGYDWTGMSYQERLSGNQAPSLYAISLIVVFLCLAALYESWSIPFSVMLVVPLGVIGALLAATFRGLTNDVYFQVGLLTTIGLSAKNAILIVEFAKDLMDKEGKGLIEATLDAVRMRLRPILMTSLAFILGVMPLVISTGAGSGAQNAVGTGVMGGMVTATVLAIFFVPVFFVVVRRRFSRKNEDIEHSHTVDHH
Description: Inhibition of AcrB in multidrug-resistant Escherichia coli BW25113 assessed as potentiation of chloramphenicol-induced antibacterial activity by measuring chloramphenicol MIC at 256 ug/ml by checkerboard titration method (reference value: 8 ug/ml). The conditions noted are these: dose 256.0 µg/ml.

Assay [2] concerns the target T1, Multidrug efflux pump subunit AcrB (Escherichia coli (strain K12)). The assay is described as follows: Inhibition of AcrB in multidrug-resistant Escherichia coli BW25113 assessed as potentiation of chloramphenicol-induced antibacterial activity by measuring chloramphenicol MIC at 512 ug/ml by checkerboard titration method (reference value: 8 ug/ml). The note with it: dose 512.0 µg/ml.

Assay [3] has the same target. The assay is described as follows: Inhibition of AcrB in multidrug-resistant Escherichia coli BW25113 assessed as potentiation of erythromycin-induced antibacterial activity by measuring erythromycin MIC at 256 ug/ml by checkerboard titration method (reference value: 64 ug/ml). The conditions noted are these: dose 256.0 µg/ml.
For assay [4] the target is unchanged. The assay is described as follows: Inhibition of AcrB in multidrug-resistant Escherichia coli BW25113 assessed as potentiation of erythromycin-induced antibacterial activity by measuring erythromycin MIC at 512 ug/ml by checkerboard titration method (reference value: 64 ug/ml). The note with it: dose 512.0 µg/ml.
Assay [5] shares this target. Description: Inhibition of AcrB in multidrug-resistant Escherichia coli BW25113 assessed as potentiation of tetraphenylphosphonium-induced antibacterial activity by measuring tetraphenylphosphonium MIC at 256 ug/ml by checkerboard titration method (reference value: 1024 ug/ml). The note with it: dose 256.0 µg/ml.
Assay [6] has the same target. The assay is described as follows: Inhibition of AcrB in multidrug-resistant Escherichia coli BW25113 assessed as potentiation of tetraphenylphosphonium-induced antibacterial activity by measuring tetraphenylphosphonium MIC at 512 ug/ml by checkerboard titration method (reference value: 1024 ug/ml). The conditions noted are these: dose 512.0 µg/ml.
Assay [7] shares this target. Description: Inhibition of AcrB in multidrug-resistant Escherichia coli BW25113 assessed as potentiation of levofloxacin-induced antibacterial activity by measuring levofloxacin MIC at 256 ug/ml by checkerboard titration method (reference value: 0.06 ug/ml). The note with it: dose 256.0 µg/ml.
Assay [8] has the same target. The assay is described as follows: Inhibition of AcrB in multidrug-resistant Escherichia coli BW25113 assessed as potentiation of levofloxacin-induced antibacterial activity by measuring levofloxacin MIC at 512 ug/ml by checkerboard titration method (reference value: 0.06 ug/ml). The note with it: dose 512.0 µg/ml.
The target is the same in assay [9]. The conditions noted are these: Escherichia coli BW25113; dose 256.0 µg/ml.
Assay [10] shares this target. The note with it: Escherichia coli BW25113; dose 512.0 µg/ml.
Assay [11] has the same target. Description: Inhibition of AcrB in multidrug-resistant Escherichia coli BW25113 assessed as potentiation of chloramphenicol-induced antibacterial activity by measuring chloramphenicol MIC at 16 ug/ml by checkerboard titration method (reference value: 8 ug/ml). The note with it: dose 16.0 µg/ml.
For assay [12] the target is unchanged. Description: Inhibition of AcrB in multidrug-resistant Escherichia coli BW25113 assessed as potentiation of chloramphenicol-induced antibacterial activity by measuring chloramphenicol MIC at 32 ug/ml by checkerboard titration method (reference value: 8 ug/ml). The note with it: dose 32.0 µg/ml.
Assay [13] has the same target. Description: Inhibition of AcrB in multidrug-resistant Escherichia coli BW25113 assessed as potentiation of chloramphenicol-induced antibacterial activity by measuring chloramphenicol MIC at 64 ug/ml by checkerboard titration method (reference value: 8 ug/ml). The note with it: dose 64.0 µg/ml.
For assay [14] the target is unchanged. Description: Inhibition of AcrB in multidrug-resistant Escherichia coli BW25113 assessed as potentiation of chloramphenicol-induced antibacterial activity by measuring chloramphenicol MIC at 128 ug/ml by checkerboard titration method (reference value: 8 ug/ml). The conditions noted are these: dose 128.0 µg/ml.
For assay [15] the target is unchanged. The assay is described as follows: Inhibition of AcrB in multidrug-resistant Escherichia coli BW25113 assessed as potentiation of erythromycin-induced antibacterial activity by measuring erythromycin MIC at 16 ug/ml by checkerboard titration method (reference value: 64 ug/ml). The conditions noted are these: dose 16.0 µg/ml.
For assay [16] the target is unchanged. Description: Inhibition of AcrB in multidrug-resistant Escherichia coli BW25113 assessed as potentiation of erythromycin-induced antibacterial activity by measuring erythromycin MIC at 32 ug/ml by checkerboard titration method (reference value: 64 ug/ml). The note with it: dose 32.0 µg/ml.
Assay [17] shares this target. Description: Inhibition of AcrB in multidrug-resistant Escherichia coli BW25113 assessed as potentiation of erythromycin-induced antibacterial activity by measuring erythromycin MIC at 64 ug/ml by checkerboard titration method (reference value: 64 ug/ml). The note with it: dose 64.0 µg/ml.
Assay [18] has the same target. Description: Inhibition of AcrB in multidrug-resistant Escherichia coli BW25113 assessed as potentiation of erythromycin-induced antibacterial activity by measuring erythromycin MIC at 128 ug/ml by checkerboard titration method (reference value: 64 ug/ml). The note with it: dose 128.0 µg/ml.
The target is the same in assay [19]. The assay is described as follows: Inhibition of AcrB in multidrug-resistant Escherichia coli BW25113 assessed as potentiation of tetraphenylphosphonium-induced antibacterial activity by measuring tetraphenylphosphonium MIC at 16 ug/ml by checkerboard titration method (reference value: 1024 ug/ml). The note with it: dose 16.0 µg/ml.
Assay [20] has the same target. Description: Inhibition of AcrB in multidrug-resistant Escherichia coli BW25113 assessed as potentiation of tetraphenylphosphonium-induced antibacterial activity by measuring tetraphenylphosphonium MIC at 32 ug/ml by checkerboard titration method (reference value: 1024 ug/ml). The note with it: dose 32.0 µg/ml.
Assay [21] has the same target. Description: Inhibition of AcrB in multidrug-resistant Escherichia coli BW25113 assessed as potentiation of tetraphenylphosphonium-induced antibacterial activity by measuring tetraphenylphosphonium MIC at 64 ug/ml by checkerboard titration method (reference value: 1024 ug/ml). The conditions noted are these: dose 64.0 µg/ml.
Assay [22] shares this target. The assay is described as follows: Inhibition of AcrB in multidrug-resistant Escherichia coli BW25113 assessed as potentiation of tetraphenylphosphonium-induced antibacterial activity by measuring tetraphenylphosphonium MIC at 128 ug/ml by checkerboard titration method (reference value: 1024 ug/ml). The conditions noted are these: dose 128.0 µg/ml.
Assay [23] shares this target. The assay is described as follows: Inhibition of AcrB in multidrug-resistant Escherichia coli BW25113 assessed as potentiation of levofloxacin-induced antibacterial activity by measuring levofloxacin MIC at 16 ug/ml by checkerboard titration method (reference value: 0.06 ug/ml). The conditions noted are these: dose 16.0 µg/ml.
Assay [24] has the same target. The assay is described as follows: Inhibition of AcrB in multidrug-resistant Escherichia coli BW25113 assessed as potentiation of levofloxacin-induced antibacterial activity by measuring levofloxacin MIC at 32 ug/ml by checkerboard titration method (reference value: 0.06 ug/ml). The conditions noted are these: dose 32.0 µg/ml.
The target is the same in assay [25]. The assay is described as follows: Inhibition of AcrB in multidrug-resistant Escherichia coli BW25113 assessed as potentiation of levofloxacin-induced antibacterial activity by measuring levofloxacin MIC at 64 ug/ml by checkerboard titration method (reference value: 0.06 ug/ml). The note with it: dose 64.0 µg/ml.
The target is the same in assay [26]. The assay is described as follows: Inhibition of AcrB in multidrug-resistant Escherichia coli BW25113 assessed as potentiation of levofloxacin-induced antibacterial activity by measuring levofloxacin MIC at 128 ug/ml by checkerboard titration method (reference value: 0.06 ug/ml). The conditions noted are these: dose 128.0 µg/ml.
Assay [27] has the same target. The conditions noted are these: Escherichia coli BW25113; dose 16.0 µg/ml.
For assay [28] the target is unchanged. The note with it: Escherichia coli BW25113; dose 32.0 µg/ml.
Assay [29] has the same target. The conditions noted are these: Escherichia coli BW25113; dose 64.0 µg/ml.
The target is the same in assay [30]. The conditions noted are these: Escherichia coli BW25113; dose 128.0 µg/ml.

Consider `CC(C)CCOc1cc(C(N)=O)cc2ccccc12`, for which the MIC in [1] was found to be 8 µg/mL; in [2] it was 4 µg/mL; in assay [3], 64 µg/mL; in assay [4], 32 µg/mL; in assay [5] it was 512 µg/mL; in assay [6], 256 µg/mL. Besides, the MIC in assay [7] stood at 0.06 µg/mL; in assay [8], 0.06 µg/mL; in assay [9], 16 µg/mL (≈ 62.2 µM); in [10] it was 16 µg/mL (≈ 62.2 µM).

In the case of `C[C@@H](Cc1ccc(O)c(O)c1)[C@@H](C)Cc1ccc(O)c(O)c1`, the MIC in assay [11] stood at 8 µg/mL; in assay [12], 8 µg/mL; in [13] it was 8 µg/mL; in assay [14] it was 4 µg/mL; in [1], 2 µg/mL; in assay [15] it was 64 µg/mL. For the same molecule, the MIC in [16] came to 64 µg/mL; in assay [17] it was 64 µg/mL; in [18], 64 µg/mL; in assay [3] it was 32 µg/mL; in [19], 1020 µg/mL; in assay [20], 1020 µg/mL. Besides, the MIC amounted to 1020 µg/mL in assay [21]; 128 µg/mL in [22]; 64 µg/mL in assay [5]; 0.06 µg/mL in assay [23]; 0.06 µg/mL in [24]; 0.03 µg/mL in assay [25]. Moreover, the MIC in [26] was 0.03 µg/mL; in assay [7], 0.03 µg/mL; in [27], 16 µg/mL (≈ 52.9 µM); in [28] it was 16 µg/mL (≈ 52.9 µM); in [29], 16 µg/mL (≈ 52.9 µM); in assay [30], 16 µg/mL (≈ 52.9 µM). The same molecule came in with an MIC in assay [9] of 16 µg/mL (≈ 52.9 µM).

These data come from ChEMBL document CHEMBL4732114, “Design and structural optimization of novel 2H-benzo[h]chromene derivatives that target AcrB and reverse bacterial multidrug resistance” (Eur J Med Chem, 2021).
